Measurements as given in patent publication US11071550B2, “Methods and devices for treating pancreatitis” (priority 2017, dated 2021).

Tests used:
mouse pancreas [1] = system: mouse pancreas
monkey pancreas = conditions: 1% acetic acid
Excerpt: Cynomologus monkeys can be used to study the retrograde infusion protocol in primates. […] The Cynomologus monkeys are first quarantined for 30 days, then transferred to the primate facility and given a 1 to 2-week acclimatization period before operating. After acclimatization, the animals undergo a laparotomy and duodenotomy with cannulation of the ampulla of Vater and temporary clamping of the common bile duct to prevent perfusion of the liver (additional details below).
Fluoroscopic dye can also be infused to confirm the location and positioning of the catheter (FIGS. 12A and 12B). […] The catheter and clamp are then removed and the surgery completed.
Cynomologus infusion procedure details: After induction of general anesthesia, the abdomen is prepped and draped and a 10 to 12 centimeter upper abdominal midline incision created. The duodenum is fully mobilized out of the retroperitoneum and a non-crushing clamp applied to the common bile duct to prevent the composition from perfusing the bile duct and liver. A two centimeter duodenotomy is then created to expose the ampulla of Vater, which is cannulated with a 2.8 French double lumen umbilical artery catheter. A clamp is then placed on the minor papilla and catheter to prevent back leaking of the composition. […]
During the 3 to 6-week period between the procedure and the sacrifice, Cynomologus monkeys are supplied with CREON enzymes as a dietary supplement to avoid malabsorption due to loss of acinar enzyme production by the pancreas. […] Throughout the 3 to 6-week period, the Cynomologus monkeys are monitored for scleral icterus as a sign of possible biliary obstruction due to bile duct structuring caused by the infusion.
At harvest, the pancreas and duodenum are examined grossly in situ, and then removed en bloc along with the common bile duct. […] In addition, beta cell mass is calculated based on the percent insulin positive area on histology along with the gross weight of the pancreas.

[2] = system: ligated tail of the pancreas
Excerpt: Mouse pancreatic duct ligation (PDL) yields a model that is reflective of chronic pancreatitis with progressive loss of islet tissue. In the PDL procedure, the pancreatic duct is ligated at the mid-point of the pancreas (FIG. 4, right image). Thus, only the distal half (tail) of the pancreas is affected since the ligation is positioned at the mid-point of the duct. […] FIGS. 5A-5E show insulin staining using DAB, whereas FIGS. 5F-5J show insulin and amylase staining using immunofluorescence (with a Hoescht counterstain for labeling cell nuclei).
The negative effects of a pancreatitis milieu on β-cell function are well known (17).
Five repeats are analyzed in each condition. […] Significance is considered when p<0.05.

mouse pancreas [3] = system: mouse pancreas; remark: listed apart in the source
Mouse islets = assay: In vitro static glucose stimulated insulin secretion (GSIS) of isolated islets
[4] = 100% ethanol infused at 8 weeks post-PDL
[5] = 100% ethanol, 1, 3, 6, 9 months

## CC(=O)O [acetic acid]
Mouse pancreas [1]; 1% acetic acid
  immunohistochemistry of treated pancreatic tissue (insulin, amylase): insulin positive and amylase negative
  islets (histology): remained intact
  open field testing: rearing (time pressed) vs sham group: not significantly different
Mouse pancreas [1]; 1% acetic acid, 6 months (FIG. 7)
  exocrine tissue: ablation of the exocrine tissue
Mouse pancreas [1]; 1% acetic acid, conclusion from open field testing
  pain: does not cause pain
Mouse pancreas [1]; 1% acetic acid, distance in meters
  open field testing: distance traveled vs sham group: not significantly different
Monkey pancreas; e.g. 7 milliliters at 500 centimeters of water
  recovery from the infusion procedure: recover well
Monkey pancreas; three weeks after infusion
  ablation of the exocrine pancreas: ablation of the exocrine pancreas in the head and body of the pancreas, and part of the tail
  islets (H&E): intact islets

## CCO [ethanol]
[2]; [4]
  loss of islets in the pancreatic tail: prevents the loss of islets in the pancreatic tail
  recurrent inflammation: no detectable recurrent inflammation
[2]; 100% ethanol infused at 8 weeks post-PDL, insulin and amylase staining
  regeneration of acinar cells: no detectable regeneration of acinar cells
[2]; PDL + ethanol infusion at 8 weeks, 24 weeks, mean±SEM
  β-cell mass in the ligated tail: 0.61±0.01 milligrams
[2]; PDL+ethanol-infused, 24 weeks
  fasting blood glucose levels vs PDL and sham operated: no different
  glucose tolerance testing vs PDL and sham operated: no different
[2]; male, C57BL/6, mouse, in vivo
  jaundice rates: less than 5%
Mouse pancreas [3]; 100% ethanol pancreatic ductal infusion
  time to significant levels of ethanol in the blood after infusion: ≤ 5 min
Mouse pancreas [3]; 100% ethanol, 100 microliters, sacrifice at 1, 3, 6, 9 months
  pancreatic acinar tissue upon sacrifice: no evidence of pancreatic acinar tissue
Mouse pancreas [3]; [5]
  amylase (AMY) staining: absent at all time points
  pancreatic endocrine tissue (β-cells and alpha cells): well-preserved
Mouse pancreas [3]; 100% ethanol, 9-month time point
  endocrine function: in vivo insulin levels during glucose tolerance testing: appears normal
Mouse pancreas [3]; 100% ethanol, 9 months
  islet vasculature (CD31 staining): appears to be intact
Mouse pancreas [3]; 100% ethanol, all time points
  fasting glucose levels vs sham-operated controls: no difference
  glucose tolerance tests vs sham-operated controls: no difference
Mouse pancreas [3]; 100% ethanol, elemental diet
  body weight vs controls: not different from controls
Mouse pancreas [3]; 100% ethanol, pancreatic tail, any time point
  β-cell mass vs sham-operated: no significant difference
Mouse pancreas [1]; Example 2, all time points
  fasting glucose levels vs sham operated controls: no difference
  glucose tolerance tests vs sham operated controls: no difference
Mouse islets; PDL+ethanol-infused tail islets, per 200 islets, low or high glucose, vs sham
  insulin secretion by islets from the pancreatic tail (in vitro GSIS): normal insulin secretion pattern
Mouse islets; islets from 100% ethanol-infused mice, 9-month time point
  endocrine function: in vitro glucose-stimulated insulin secretion (GSIS): appears normal
